# Test results reported in ChEMBL document CHEMBL1132835, “Solid-phase synthesis of 2,3-disubstituted indoles: discovery of a novel, high-affinity, selective h5-HT2A antagonist” (Bioorg Med Chem Lett, 2000).
# Target: 5-hydroxytryptamine receptor 2A (Homo sapiens, UniProt P28223)
# Test: Ability to displace [3H]ketanserin from CHO cells expressing human 5-hydroxytryptamine 2A receptor was determined
# Assay type: cell-based
# 5-hydroxytryptamine receptor 2A, sequence (P28223 whole entry): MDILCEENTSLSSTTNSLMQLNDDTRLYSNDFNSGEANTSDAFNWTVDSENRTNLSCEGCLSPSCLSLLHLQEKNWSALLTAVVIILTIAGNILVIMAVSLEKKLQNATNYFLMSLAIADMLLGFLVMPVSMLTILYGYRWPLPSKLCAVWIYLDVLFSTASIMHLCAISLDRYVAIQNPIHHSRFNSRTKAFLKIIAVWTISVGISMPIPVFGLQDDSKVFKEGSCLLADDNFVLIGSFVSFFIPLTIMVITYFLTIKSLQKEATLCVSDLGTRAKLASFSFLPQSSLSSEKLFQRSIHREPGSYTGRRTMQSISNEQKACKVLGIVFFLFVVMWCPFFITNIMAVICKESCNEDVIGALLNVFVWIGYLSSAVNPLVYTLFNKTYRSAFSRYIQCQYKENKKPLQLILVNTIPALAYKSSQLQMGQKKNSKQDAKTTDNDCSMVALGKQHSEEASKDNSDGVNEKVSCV
smiles,measurement,value
c1ccc(-c2[nH]c3ccccc3c2CCN2CCCCC2)cc1,Ki,2.7 nM
